# Active and inactive are the calls of the source. No cut-off for these calls is given here.
# Experiments:
# Type in all cases: functional
# SF-539 [1] = assay: Growth inhibition of human SF539 cells assessed as growth inhibition at 10 uM by sulforhodamine B assay; conditions: read-out: GI
# HL-60(TB) = assay: Growth inhibition of human HL-60(TB) cells assessed as growth inhibition at 10 uM by sulforhodamine B assay
# SK-MEL-5 = assay: Growth inhibition of human SK-MEL-5 cells assessed as growth inhibition at 10 uM by sulforhodamine B assay; conditions: read-out: GI
# MDA-MB-435 = assay: Growth inhibition of human MDA-MB-435 cells assessed as growth inhibition at 10 uM by sulforhodamine B assay; conditions: read-out: GI
# OVCAR-3 = assay: Growth inhibition of human OVCAR3 cells assessed as growth inhibition at 10 uM by sulforhodamine B assay; conditions: read-out: GI
# OVCAR-4 = assay: Growth inhibition of human OVCAR4 cells assessed as cell growth at 10 uM by sulforhodamine B assay; conditions: read-out: Activity
# M14 [2] = assay: Growth inhibition of human M14 cells assessed as growth inhibition at 10 uM by sulforhodamine B assay; conditions: read-out: GI
# CCRF-CEM = assay: Growth inhibition of human CCRF-CEM cells assessed as cell growth at 10 uM by sulforhodamine B assay; conditions: read-out: Activity
# [3] = Growth inhibition of human HCC2998 cells assessed as cell growth at 10 uM by sulforhodamine B assay; conditions: HCC 2998, read-out: Activity
# M14 [4] = assay: Growth inhibition of human M14 cells assessed as cell growth at 10 uM by sulforhodamine B assay; conditions: read-out: Activity
# UACC-62 = assay: Growth inhibition of human UACC62 cells assessed as growth inhibition at 10 uM by sulforhodamine B assay
# BT-549 [5] = assay: Growth inhibition of human BT549 cells assessed as cell growth at 10 uM by sulforhodamine B assay; conditions: read-out: Activity
# SF-295 = assay: Growth inhibition of human SF295 cells assessed as cell growth at 10 uM by sulforhodamine B assay; conditions: read-out: Activity
# PC-3 = assay: Growth inhibition of human PC3 cells assessed as cell growth at 10 uM by sulforhodamine B assay; conditions: read-out: Activity
# NCI-H322M = assay: Growth inhibition of human NCI-H322M cells assessed as growth inhibition at 10 uM by sulforhodamine B assay
# K562 [6] = assay: Growth inhibition of human K562 cells assessed as growth inhibition at 10 uM by sulforhodamine B assay; conditions: read-out: GI
# SN12C [7] = assay: Growth inhibition of human SN12C cells assessed as cell growth at 10 uM by sulforhodamine B assay; conditions: read-out: Activity
# NCI-H460 [8] = assay: Growth inhibition of human NCI-H460 cells assessed as growth inhibition at 10 uM by sulforhodamine B assay; conditions: read-out: GI
# A498 = assay: Growth inhibition of human A498 cells assessed as growth inhibition at 10 uM by sulforhodamine B assay
# SN12C [9] = assay: Growth inhibition of human SN12C cells assessed as growth inhibition at 10 uM by sulforhodamine B assay; conditions: read-out: GI
# Malme-3M [10] = assay: Growth inhibition of human MALME-3M cells assessed as cell growth at 10 uM by sulforhodamine B assay; conditions: read-out: Activity
# U-251 = assay: Growth inhibition of human U251 cells assessed as growth inhibition at 10 uM by sulforhodamine B assay; conditions: read-out: GI
# OVCAR-5 = assay: Growth inhibition of human OVCAR5 cells assessed as cell growth at 10 uM by sulforhodamine B assay; conditions: read-out: Activity
# MCF7 = assay: Growth inhibition of human MCF7 cells assessed as cell growth at 10 uM by sulforhodamine B assay; conditions: read-out: Activity
# UO-31 [11] = assay: Growth inhibition of human UO31 cells assessed as cell growth at 10 uM by sulforhodamine B assay; conditions: read-out: Activity
# K562 [12] = assay: Growth inhibition of human K562 cells assessed as cell growth at 10 uM by sulforhodamine B assay; conditions: read-out: Activity
# NCI-H460 [13] = assay: Growth inhibition of human NCI-H460 cells assessed as cell growth at 10 uM by sulforhodamine B assay; conditions: read-out: Activity
# [14] = Growth inhibition of human Hs 578T cells assessed as cell growth at 10 uM by sulforhodamine B assay; conditions: read-out: Activity
# RPMI-8226 [15] = assay: Growth inhibition of human RPMI8226 cells assessed as cell growth at 10 uM by sulforhodamine B assay; conditions: read-out: Activity
# HCT-15 = assay: Growth inhibition of human HCT15 cells assessed as growth inhibition at 10 uM by sulforhodamine B assay; conditions: read-out: GI
# SW-620 = assay: Growth inhibition of human SW620 cells assessed as cell growth at 10 uM by sulforhodamine B assay; conditions: read-out: Activity
# KM12 [16] = assay: Growth inhibition of human KM12 cells assessed as cell growth at 10 uM by sulforhodamine B assay; conditions: read-out: Activity
# HCT-116 = assay: Growth inhibition of human HCT116 cells assessed as cell growth at 10 uM by sulforhodamine B assay; conditions: read-out: Activity
# CAKI-1 [17] = assay: Growth inhibition of human CAKI-1 cells assessed as cell growth at 10 uM by sulforhodamine B assay; conditions: read-out: Activity
# CAKI-1 [18] = assay: Growth inhibition of human CAKI-1 cells assessed as growth inhibition at 10 uM by sulforhodamine B assay; conditions: read-out: GI
# UO-31 [19] = assay: Growth inhibition of human UO31 cells assessed as growth inhibition at 10 uM by sulforhodamine B assay
# SF-539 [20] = assay: Growth inhibition of human SF539 cells assessed as cell growth at 10 uM by sulforhodamine B assay; conditions: read-out: Activity
# RPMI-8226 [21] = assay: Growth inhibition of human RPMI8226 cells assessed as growth inhibition at 10 uM by sulforhodamine B assay; conditions: read-out: GI
# SK-MEL-2 = assay: Growth inhibition of human SK-MEL-2 cells assessed as cell growth at 10 uM by sulforhodamine B assay; conditions: read-out: Activity
# MDA-MB-468 = assay: Growth inhibition of human MDA-MB-468 cells assessed as growth inhibition at 10 uM by sulforhodamine B assay; conditions: read-out: GI
# Malme-3M [22] = assay: Growth inhibition of human MALME-3M cells assessed as growth inhibition at 10 uM by sulforhodamine B assay; conditions: read-out: GI
# DU-145 = assay: Growth inhibition of human DU145 cells assessed as growth inhibition at 10 uM by sulforhodamine B assay; conditions: read-out: GI
# RXF 393 = assay: Growth inhibition of human RXF393 cells assessed as growth inhibition at 10 uM by sulforhodamine B assay; conditions: read-out: GI
# KM12 [23] = assay: Growth inhibition of human KM12 cells assessed as growth inhibition at 10 uM by sulforhodamine B assay; conditions: read-out: GI
# UACC-257 = assay: Growth inhibition of human UACC257 cells assessed as cell growth at 10 uM by sulforhodamine B assay; conditions: read-out: Activity
# SF-268 [24] = assay: Growth inhibition of human SF268 cells assessed as cell growth at 10 uM by sulforhodamine B assay; conditions: read-out: Activity
# SF-268 [25] = assay: Growth inhibition of human SF268 cells assessed as growth inhibition at 10 uM by sulforhodamine B assay; conditions: read-out: GI
# BT-549 [26] = assay: Growth inhibition of human BT549 cells assessed as growth inhibition at 10 uM by sulforhodamine B assay; conditions: read-out: GI
# SNB-19 = assay: Growth inhibition of human SNB19 cells assessed as growth inhibition at 10 uM by sulforhodamine B assay
structure (smiles),measurement,setting,value
C/C=C(/C)C(=O)O[C@@H]1CC(C)(C)C[C@H]2C3=CC[C@@H]4[C@@]5(C)CC[C@H](O)C(C)(C)[C@@H]5CC[C@@]4(C)[C@]3(C)CC[C@@]12C(=O)O [Reduced Lantadene A],inhibition of growth at 10 µM,SF-539 [1],57%
same,growth inhibition (GI),HL-60(TB),Active
same,inhibition of growth at 10 µM,SK-MEL-5,46.8%
same,inhibition of growth at 10 µM,MDA-MB-435,35.1%
same,inhibition of growth at 10 µM,OVCAR-3,68%
same,growth at 10 µM,OVCAR-4,63.2%
same,inhibition of growth at 10 µM,M14 [2],71.3%
same,growth at 10 µM,CCRF-CEM,45.8%
same,growth at 10 µM,[3],26.4%
same,growth at 10 µM,M14 [4],28.7%
same,growth inhibition (GI),UACC-62,Active
same,growth at 10 µM,BT-549 [5],26.1%
same,growth at 10 µM,SF-295,-14.4%
same,growth at 10 µM,PC-3,33.3%
same,growth inhibition (GI),NCI-H322M,Active
same,inhibition of growth at 10 µM,K562 [6],64.1%
same,growth at 10 µM,SN12C [7],5.77%
same,inhibition of growth at 10 µM,NCI-H460 [8],64.9%
same,growth inhibition (GI),A498,Active
same,inhibition of growth at 10 µM,SN12C [9],94.2%
same,growth at 10 µM,Malme-3M [10],35.2%
same,inhibition of growth at 10 µM,U-251,61.8%
same,growth at 10 µM,OVCAR-5,64%
same,growth at 10 µM,MCF7,61%
same,growth at 10 µM,UO-31 [11],-26%
same,growth at 10 µM,K562 [12],35.9%
same,growth at 10 µM,NCI-H460 [13],35.1%
same,growth at 10 µM,[14],-17.2%
same,growth at 10 µM,RPMI-8226 [15],21.1%
same,inhibition of growth at 10 µM,HCT-15,78.8%
same,growth at 10 µM,SW-620,39.1%
same,growth at 10 µM,KM12 [16],21.7%
same,growth at 10 µM,HCT-116,20%
same,growth at 10 µM,CAKI-1 [17],29.5%
same,inhibition of growth at 10 µM,CAKI-1 [18],70.5%
same,growth inhibition (GI),UO-31 [19],Active
same,growth at 10 µM,SF-539 [20],43%
same,inhibition of growth at 10 µM,RPMI-8226 [21],78.9%
same,growth at 10 µM,SK-MEL-2,54.1%
same,inhibition of growth at 10 µM,MDA-MB-468,33.9%
same,inhibition of growth at 10 µM,Malme-3M [22],64.8%
same,inhibition of growth at 10 µM,DU-145,25.1%
same,inhibition of growth at 10 µM,RXF 393,77.2%
same,inhibition of growth at 10 µM,KM12 [23],78.3%
same,growth at 10 µM,UACC-257,60.6%
same,growth at 10 µM,SF-268 [24],25.9%
same,inhibition of growth at 10 µM,SF-268 [25],74.1%
same,inhibition of growth at 10 µM,BT-549 [26],73.9%
same,growth inhibition (GI),SNB-19,Active
